The source made the active and inactive calls. The rule behind the calls is not given here.
Key:
[1] = target: Toll-like receptor 3 (Homo sapiens) (UniProt O15455); assay: Antagonist activity at human TLR3 expressed in HEK293 cells co-transfected with MD2 and sAP assessed as inhibition of NF-kappaB activity by reporter gene assay; assay type: cell-based
[2] = target: Toll-like receptor 4 (Homo sapiens) (UniProt O00206); assay: Antagonist activity at human TLR4 expressed in HEK293 cells co-transfected with MD2 and sAP assessed as inhibition of NF-kappaB activity by reporter gene assay; assay type: cell-based
[3] = target: T1, Toll-like receptor 7 (Homo sapiens) (UniProt Q9NYK1); assay: Antagonist activity at human TLR7 expressed in HEK293 cells co-transfected with MD2 and sAP assessed as inhibition of NF-kappaB activity by reporter gene assay; assay type: cell-based
T1 sequence (whole entry): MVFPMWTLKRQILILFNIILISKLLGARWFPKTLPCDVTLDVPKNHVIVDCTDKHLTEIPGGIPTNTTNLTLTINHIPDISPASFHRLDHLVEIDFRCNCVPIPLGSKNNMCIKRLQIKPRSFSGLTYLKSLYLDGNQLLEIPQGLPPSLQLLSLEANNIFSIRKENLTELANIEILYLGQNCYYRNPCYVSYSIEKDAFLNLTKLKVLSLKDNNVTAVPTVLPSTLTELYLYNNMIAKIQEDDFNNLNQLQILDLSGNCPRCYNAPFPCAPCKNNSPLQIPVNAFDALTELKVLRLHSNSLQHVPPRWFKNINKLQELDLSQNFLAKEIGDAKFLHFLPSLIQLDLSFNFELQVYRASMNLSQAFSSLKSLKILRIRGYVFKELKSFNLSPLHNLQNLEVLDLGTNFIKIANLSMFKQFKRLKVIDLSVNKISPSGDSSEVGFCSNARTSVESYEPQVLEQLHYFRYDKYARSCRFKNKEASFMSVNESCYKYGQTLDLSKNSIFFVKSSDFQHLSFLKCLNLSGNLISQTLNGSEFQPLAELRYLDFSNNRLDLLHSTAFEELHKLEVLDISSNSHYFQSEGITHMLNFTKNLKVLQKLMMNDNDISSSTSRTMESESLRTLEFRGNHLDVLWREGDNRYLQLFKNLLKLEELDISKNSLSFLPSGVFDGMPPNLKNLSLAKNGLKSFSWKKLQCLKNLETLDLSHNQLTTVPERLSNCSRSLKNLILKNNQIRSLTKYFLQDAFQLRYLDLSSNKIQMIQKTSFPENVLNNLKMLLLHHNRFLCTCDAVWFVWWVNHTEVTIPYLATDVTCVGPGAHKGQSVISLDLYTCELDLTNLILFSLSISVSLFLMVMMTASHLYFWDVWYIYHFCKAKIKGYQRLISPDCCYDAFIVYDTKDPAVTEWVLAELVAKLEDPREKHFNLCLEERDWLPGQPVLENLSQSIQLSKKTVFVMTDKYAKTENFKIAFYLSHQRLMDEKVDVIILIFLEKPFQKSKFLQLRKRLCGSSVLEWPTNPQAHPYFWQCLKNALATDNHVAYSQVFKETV

[4] = target: Toll-like receptor 5 (Homo sapiens) (UniProt O60602); assay: Antagonist activity at human TLR5 expressed in HEK293 cells co-transfected with MD2 and sAP assessed as inhibition of NF-kappaB activity by reporter gene assay; assay type: cell-based
[5] = target: T2, Nucleotide-binding oligomerization domain-containing protein 1 (Homo sapiens) (UniProt Q9Y239); assay: Antagonist activity at NOD1 (unknown origin)
T2 sequence (whole entry): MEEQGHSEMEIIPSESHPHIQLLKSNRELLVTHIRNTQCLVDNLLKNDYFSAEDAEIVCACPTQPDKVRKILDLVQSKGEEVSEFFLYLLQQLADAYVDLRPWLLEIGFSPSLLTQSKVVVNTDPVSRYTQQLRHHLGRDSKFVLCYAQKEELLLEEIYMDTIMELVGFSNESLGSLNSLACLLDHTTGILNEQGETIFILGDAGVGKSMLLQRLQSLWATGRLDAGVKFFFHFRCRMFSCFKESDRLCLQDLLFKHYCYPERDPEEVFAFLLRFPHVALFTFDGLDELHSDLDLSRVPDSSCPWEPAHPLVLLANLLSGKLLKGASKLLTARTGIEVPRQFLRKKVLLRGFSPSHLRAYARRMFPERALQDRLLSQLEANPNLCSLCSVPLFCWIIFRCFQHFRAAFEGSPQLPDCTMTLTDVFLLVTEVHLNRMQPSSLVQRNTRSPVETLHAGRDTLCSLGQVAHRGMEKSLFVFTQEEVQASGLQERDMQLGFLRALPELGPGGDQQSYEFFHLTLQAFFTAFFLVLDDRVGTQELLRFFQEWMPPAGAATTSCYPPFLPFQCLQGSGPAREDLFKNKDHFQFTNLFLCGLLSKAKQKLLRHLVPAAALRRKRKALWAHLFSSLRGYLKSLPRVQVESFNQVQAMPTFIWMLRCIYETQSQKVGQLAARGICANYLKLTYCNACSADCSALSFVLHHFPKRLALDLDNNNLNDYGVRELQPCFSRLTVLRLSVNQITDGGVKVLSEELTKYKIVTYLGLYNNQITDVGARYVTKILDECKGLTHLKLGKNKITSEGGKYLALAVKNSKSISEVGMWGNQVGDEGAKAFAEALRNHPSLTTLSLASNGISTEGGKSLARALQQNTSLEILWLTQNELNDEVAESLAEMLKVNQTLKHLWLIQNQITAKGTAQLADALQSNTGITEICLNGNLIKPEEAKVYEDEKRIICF

[6] = target: T1, Toll-like receptor 7 (Homo sapiens); assay: Modulation of human TLR7 expressed in HEK293 cells co-transfected with MD2 and sAP assessed as induction of NF-kappaB activity by reporter gene assay; assay type: cell-based

Chain of Toll-like receptor 5 (Homo sapiens) (O60602 whole entry, the tested form may be a part): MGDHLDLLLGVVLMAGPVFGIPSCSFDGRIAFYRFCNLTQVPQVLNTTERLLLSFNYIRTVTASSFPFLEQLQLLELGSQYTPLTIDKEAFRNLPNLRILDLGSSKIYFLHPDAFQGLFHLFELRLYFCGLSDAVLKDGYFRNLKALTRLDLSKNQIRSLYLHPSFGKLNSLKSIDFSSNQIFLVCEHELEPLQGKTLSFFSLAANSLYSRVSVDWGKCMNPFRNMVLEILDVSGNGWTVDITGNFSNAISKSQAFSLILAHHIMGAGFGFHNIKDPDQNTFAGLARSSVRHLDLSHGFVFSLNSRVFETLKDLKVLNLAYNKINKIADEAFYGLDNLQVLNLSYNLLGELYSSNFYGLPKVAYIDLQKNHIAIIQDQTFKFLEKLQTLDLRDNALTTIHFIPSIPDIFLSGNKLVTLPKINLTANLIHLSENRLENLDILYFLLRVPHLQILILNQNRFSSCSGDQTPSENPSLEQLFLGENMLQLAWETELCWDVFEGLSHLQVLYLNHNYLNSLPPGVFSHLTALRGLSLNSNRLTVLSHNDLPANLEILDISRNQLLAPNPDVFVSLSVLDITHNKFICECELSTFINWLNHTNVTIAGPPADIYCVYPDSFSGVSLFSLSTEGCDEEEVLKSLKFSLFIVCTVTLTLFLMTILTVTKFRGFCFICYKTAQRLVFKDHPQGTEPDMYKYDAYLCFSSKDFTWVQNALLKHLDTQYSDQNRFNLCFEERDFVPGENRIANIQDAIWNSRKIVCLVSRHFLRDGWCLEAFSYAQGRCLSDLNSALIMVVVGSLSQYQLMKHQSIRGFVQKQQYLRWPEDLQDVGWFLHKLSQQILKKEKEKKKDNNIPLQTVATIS
Chain of Toll-like receptor 3 (Homo sapiens) (O15455 whole entry): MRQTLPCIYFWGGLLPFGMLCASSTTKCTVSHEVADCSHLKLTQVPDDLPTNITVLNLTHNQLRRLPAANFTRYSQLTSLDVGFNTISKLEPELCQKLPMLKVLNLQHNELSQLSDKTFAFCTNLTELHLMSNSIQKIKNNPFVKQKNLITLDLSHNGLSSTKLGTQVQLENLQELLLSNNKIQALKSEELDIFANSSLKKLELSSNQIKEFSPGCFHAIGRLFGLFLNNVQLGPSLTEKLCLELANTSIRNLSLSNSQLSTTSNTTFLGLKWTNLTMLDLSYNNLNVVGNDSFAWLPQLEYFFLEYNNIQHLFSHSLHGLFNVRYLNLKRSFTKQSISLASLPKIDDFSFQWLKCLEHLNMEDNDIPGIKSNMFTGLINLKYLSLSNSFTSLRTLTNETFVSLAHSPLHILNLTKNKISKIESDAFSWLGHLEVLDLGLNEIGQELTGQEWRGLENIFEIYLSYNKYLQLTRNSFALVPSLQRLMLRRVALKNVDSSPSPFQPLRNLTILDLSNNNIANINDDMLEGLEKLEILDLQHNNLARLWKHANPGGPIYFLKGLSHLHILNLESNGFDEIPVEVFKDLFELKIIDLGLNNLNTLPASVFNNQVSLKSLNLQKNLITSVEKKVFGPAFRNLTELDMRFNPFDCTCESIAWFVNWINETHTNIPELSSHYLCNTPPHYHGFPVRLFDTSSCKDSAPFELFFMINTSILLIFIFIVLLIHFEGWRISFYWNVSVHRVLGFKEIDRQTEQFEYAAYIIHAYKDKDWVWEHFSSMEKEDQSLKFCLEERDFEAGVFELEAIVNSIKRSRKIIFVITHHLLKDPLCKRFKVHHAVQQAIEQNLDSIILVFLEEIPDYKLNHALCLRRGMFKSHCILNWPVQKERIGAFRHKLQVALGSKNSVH
Chain of Toll-like receptor 4 (Homo sapiens) (O00206 whole entry): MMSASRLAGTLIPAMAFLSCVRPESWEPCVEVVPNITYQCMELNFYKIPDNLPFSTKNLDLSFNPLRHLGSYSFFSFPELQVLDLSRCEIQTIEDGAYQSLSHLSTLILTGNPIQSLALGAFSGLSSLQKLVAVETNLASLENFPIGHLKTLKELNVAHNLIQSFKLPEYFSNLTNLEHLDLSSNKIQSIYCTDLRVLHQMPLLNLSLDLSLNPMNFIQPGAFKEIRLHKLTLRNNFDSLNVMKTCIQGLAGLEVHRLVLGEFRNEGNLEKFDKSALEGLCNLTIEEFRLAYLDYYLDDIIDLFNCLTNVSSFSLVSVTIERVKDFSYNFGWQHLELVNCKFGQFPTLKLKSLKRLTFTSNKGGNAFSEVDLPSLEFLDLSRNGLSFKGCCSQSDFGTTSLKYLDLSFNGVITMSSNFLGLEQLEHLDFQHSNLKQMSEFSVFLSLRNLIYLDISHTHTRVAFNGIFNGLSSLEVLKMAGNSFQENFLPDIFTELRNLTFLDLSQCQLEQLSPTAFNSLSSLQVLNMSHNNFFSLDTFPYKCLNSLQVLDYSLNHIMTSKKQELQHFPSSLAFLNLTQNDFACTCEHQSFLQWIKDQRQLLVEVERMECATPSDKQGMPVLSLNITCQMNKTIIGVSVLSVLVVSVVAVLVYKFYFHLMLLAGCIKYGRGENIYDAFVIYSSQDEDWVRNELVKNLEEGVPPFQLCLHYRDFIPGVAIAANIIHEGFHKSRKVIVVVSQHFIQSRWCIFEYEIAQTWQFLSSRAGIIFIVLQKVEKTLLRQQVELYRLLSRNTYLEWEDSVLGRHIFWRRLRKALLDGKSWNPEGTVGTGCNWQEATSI

Row | Compound | inhibition [1] | inhibition [2] | inhibition [3] | inhibition [4] | inhibition [5] | Activity [6]
1 | NCCc1cc2c(o1)c(N)nc1ccccc12 | – | – | – | – | – | Active
2 | Nc1nc2ccccc2c2oc(-c3ccccc3)cc12 | inactive | inactive | inactive | inactive | inactive | –

Continued, in another order:

Row | inhibition [1] | inhibition [2] | inhibition [3] | inhibition [4] | inhibition [5] | Compound | Activity [6]
3 | inactive | inactive | inactive | inactive | inactive | CCCc1cc2c(N)nc3ccccc3c2o1 | –
4 | inactive | inactive | inactive | inactive | inactive | CCCCc1cc2c(nc(N)c3ccccc32)o1 | inactive
5 | inactive | inactive | inactive | inactive | inactive | CCCCc1cc2c(N)nc3ccccc3c2o1 | –
